According to ChEMBL document CHEMBL5365466, “Discovery of Triazolyl Derivatives of Cucurbitacin B Targeting IGF2BP1 against Non-Small Cell Lung Cancer” (J Med Chem, 2023):
Calls of active or inactive are those of the source. The rule behind the calls is not given here.

Key:
A549 [1] = assay: Antiproliferative activity against human A549 cells with IGF2BP1 knockdown assessed as cell growth inhibition incubated for 72 hrs by SRB assay; type: functional, cell-based; details: A549, 72 h
[2] = Selectivity index, ratio of IC50 for antiproliferative activity against human L02 cells to IC50 for antiproliferative activity against human HCT-116 cells; type: toxicity, cell-based; details: L02 cells versus HCT-116 cells, read-out: Ratio IC50
MCF7 = assay: Antiproliferative activity against human MCF7 cells assessed as cell growth inhibition incubated for 72 hrs by SRB assay; type: functional, cell-based; details: MCF7, 72 h
A549 [3] = assay: Induction of autophagy in human A549 cells assessed as upregulation of LC3II/LC3I ratio at 0.1 to 0.5 uM incubated for 48 hrs by Western blotting analysis; type: functional, cell-based; details: dose 0.1-0.5 µM
HCT-116 [4] = assay: Antiproliferative activity against human HCT-116 cells assessed as cell growth inhibition incubated for 72 hrs by SRB assay; type: functional, cell-based; details: HCT-116, 72 h
MDA-MB-231 = assay: Antiproliferative activity against human MDA-MB-231 cells assessed as cell growth inhibition incubated for 72 hrs by SRB assay; type: functional, cell-based; details: MDA-MB-231, 72 h
HCT-116 [5] = assay: Antiproliferative activity against human HCT-116 cells assessed as cell growth inhibition at 0.1 uM incubated for 72 hrs by SRB assay; type: functional
A549 [6] = assay: Induction of cell cycle arrest in human A549 cells assessed as accumulation of cells at G1 phase at 0.2 uM incubated for 24 hrs by PI staining based flow cytometric analysis (reference value: 65.6 %); type: functional
A549 [7] = assay: Antitumor activity against human A549 cells xenografted in BALB/c mouse assessed as decrease in tumor volume at 0.5 mg/kg,ip administrated for 21 days; type: functional, organism-based; details: time 21.0 day
A549 [8] = assay: Induction of apoptosis in human A549 cells assessed as downregulation of CDK4 expression incubated for 48 hrs by Western blotting analysis; type: functional, cell-based
[9] = Antiproliferative activity against human L02 cells assessed as cell growth inhibition at 0.1 uM incubated for 72 hrs by SRB assay; type: toxicity, cell-based
A549 [10] = assay: Induction of cell cycle arrest in human A549 cells assessed as accumulation of cells at G1 phase at 0.5 uM incubated for 24 hrs by PI staining based flow cytometric analysis (reference value: 65.6 %); type: functional
A549 [11] = assay: Induction of apoptosis in human A549 cells assessed as increase in PARP cleavage incubated for 48 hrs by Western blotting analysis; type: functional, cell-based
A549 [12] = assay: Induction of cell cycle arrest in human A549 cells assessed as accumulation of cells at G2 phase at 0.1 uM incubated for 24 hrs by PI staining based flow cytometric analysis (reference value: 9.26 %); type: functional
[13] = Acute toxicity in BALB/c mouse xenografted with human A549 cells assessed as change in body weight at 0.5 mg/kg,ip administrated for 21 days; type: organism-based; details: in vivo, 504 h, time 21 day
[14] = biological target: T1, Insulin-like growth factor 2 mRNA-binding protein 1 (Homo sapiens, UniProt Q9NZI8); assay: Binding affinity to IGF2BP1 in human A549 cells assessed as protein stabilization at 1 uM at 52 degreeC incubated for 2 hrs by CETSA; type: cell-based
A549 [15] = assay: Induction of apoptosis in human A549 cells assessed as downregulation of BCL-xl expression incubated for 48 hrs by Western blotting analysis; type: functional, cell-based
[16] = biological target: T1, Insulin-like growth factor 2 mRNA-binding protein 1; assay: Binding affinity to IGF2BP1 in human A549 cells assessed as protein stabilization at 1 uM at 46 degreeC incubated for 2 hrs by CETSA; type: cell-based
[17] = Acute toxicity in C57BL/6J mouse assessed as death at 0.75 mg/kg,ip measured after 14 days; type: organism-based; details: in vivo, 336 h, time 14 day
A549 [18] = assay: Induction of autophagy in human A549 cells assessed as upregulation of Beclin-1 expression at 0.1 to 0.5 uM incubated for 48 hrs by Western blotting analysis; type: functional, cell-based; details: dose 0.1-0.5 µM
A549 [19] = assay: Antitumor activity against human A549 cells xenografted in BALB/c mouse assessed as reduction in Ki67 expression in tumor at 0.5 mg/kg,ip administrated for 21 days by immunohistochemical analysis; type: functional, organism-based; details: time 21.0 day
A549 [20] = assay: Antitumor activity against human A549 cells xenografted in BALB/c mouse assessed as increase in apoptosis at 0.5 mg/kg,ip administrated for 21 days by TUNEL staining based analysis; type: functional, organism-based; details: time 21.0 day
A549 [21] = assay: Antiproliferative activity against human A549 cells assessed as cell growth inhibition incubated for 72 hrs by SRB assay; type: functional, cell-based; details: A549, 72 h
[22] = biological target: T1, Insulin-like growth factor 2 mRNA-binding protein 1; assay: Binding affinity to IGF2BP1 in human A549 cells assessed as protein stabilization at 1 uM at 55 degreeC incubated for 2 hrs by CETSA; type: cell-based
A549 [23] = assay: Induction of apoptosis in human A549 cells assessed as downregulation of c-Myc expression incubated for 48 hrs by Western blotting analysis; type: functional, cell-based
A549 [24] = assay: Induction of cell cycle arrest in human A549 cells assessed as accumulation of cells at G1 phase at 0.1 uM incubated for 24 hrs by PI staining based flow cytometric analysis (reference value: 65.6 %); type: functional
[25] = Selectivity index, ratio of IC50 for antiproliferative activity against human L02 cells to IC50 for antiproliferative activity against human CFPAC-1 cells
A549 [26] = assay: Induction of apoptosis in human A549 cells incubated for 48 hrs by Annexin V-FITC/PI staining based flow cytometric analysis; type: functional, cell-based
A549 [27] = assay: Induction of autophagy in human A549 cells assessed as upregulation of p62 protein expression at 0.1 to 0.5 uM incubated for 48 hrs by Western blotting analysis; type: functional, cell-based; details: dose 0.1-0.5 µM
HeLa = assay: Antiproliferative activity against human HeLa cells assessed as cell growth inhibition incubated for 72 hrs by SRB assay; type: functional, cell-based
CFPAC-1 = assay: Antiproliferative activity against human CFPAC-1 cells assessed as cell growth inhibition incubated for 72 hrs by SRB assay; type: functional, cell-based; details: CFPAC-1, 72 h
[28] = Selectivity index, ratio of IC50 for antiproliferative activity against human L02 cells to IC50 for antiproliferative activity against human BXPC-3 cells; type: toxicity, cell-based; details: L02 cells versus BXPC-3 cells, read-out: Ratio IC50
[29] = Selectivity index, ratio of IC50 for antiproliferative activity against human L02 cells to IC50 for antiproliferative activity against human A549 cells; type: toxicity, cell-based; details: L02 cells versus A549 cells, read-out: Ratio IC50
A549 [30] = assay: Induction of cell cycle arrest in human A549 cells assessed as accumulation of cells at G2 phase at 0.5 uM incubated for 24 hrs by PI staining based flow cytometric analysis (reference value: 9.26 %); type: functional
[31] = Acute toxicity in C57BL/6J mouse assessed as change in body weight at 0.75 mg/kg,ip measured after 14 days; type: organism-based; details: in vivo, 336 h, time 14 day
[32] = Selectivity index, ratio of IC50 for antiproliferative activity against human L02 cells to IC50 for antiproliferative activity against human SK-OV-3 cells
[33] = Antiproliferative activity against human L02 cells assessed as cell growth inhibition at 1 uM incubated for 72 hrs by SRB assay; type: toxicity, cell-based
A549 [34] = assay: Induction of cell cycle arrest in human A549 cells assessed as accumulation of cells at G2 phase at 0.2 uM incubated for 24 hrs by PI staining based flow cytometric analysis (reference value: 9.26 %); type: functional

T1 sequence (Q9NZI8 whole entry): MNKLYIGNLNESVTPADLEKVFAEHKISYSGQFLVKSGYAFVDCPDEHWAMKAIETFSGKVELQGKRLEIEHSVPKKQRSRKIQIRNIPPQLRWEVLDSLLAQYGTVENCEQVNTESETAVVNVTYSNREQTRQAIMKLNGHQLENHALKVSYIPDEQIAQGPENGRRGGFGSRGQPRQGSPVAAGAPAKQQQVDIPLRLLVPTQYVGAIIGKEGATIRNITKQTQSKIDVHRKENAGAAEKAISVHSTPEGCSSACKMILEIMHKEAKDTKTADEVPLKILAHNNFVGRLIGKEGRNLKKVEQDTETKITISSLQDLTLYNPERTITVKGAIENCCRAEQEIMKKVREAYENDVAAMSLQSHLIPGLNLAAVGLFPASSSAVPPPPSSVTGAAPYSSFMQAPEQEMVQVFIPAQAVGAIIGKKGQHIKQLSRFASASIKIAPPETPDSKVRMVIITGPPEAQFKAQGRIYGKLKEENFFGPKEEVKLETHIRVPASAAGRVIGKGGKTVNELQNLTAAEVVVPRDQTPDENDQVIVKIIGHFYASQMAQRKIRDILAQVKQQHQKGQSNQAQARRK

Compound: CC(=O)OC(C)(C)/C=C/C(=O)[C@](C)(O)[C@H]1[C@H](O)C[C@@]2(C)[C@@H]3CC=C4[C@@H](C[C@H](OC(=O)Cn5ncn(-c6ccc(F)cc6)c5=O)C(=O)C4(C)C)[C@]3(C)C(=O)C[C@]12C
- IC50 (A549 [1]): 92 nM
- selectivity ratio [2]: 2.94
- IC50 (MCF7): 56 nM
- Activity (A549 [3]): Active
- IC50 (HCT-116 [4]): 34 nM
- IC50 (MDA-MB-231): 49 nM
- inhibition at 0.1 µM (HCT-116 [5]): 73.1%
- Activity (A549 [6]): 63.6%
- Activity (A549 [7]): Active
- Activity (A549 [8]): Dose-Dependent Effect
- inhibition at 72 h, 0.1 µM [9]: 50.5%
- Activity (A549 [10]): 51.3%
- Activity (A549 [11]): Dose-Dependent Effect
- Activity (A549 [12]): 10.5%
- Activity [13]: Non-Toxic
- Activity [14]: Active
- Activity (A549 [15]): Dose-Dependent Effect
- Activity [16]: Active
- Activity [17]: Non-Toxic
- Activity (A549 [18]): inactive
- Activity (A549 [19]): Active
- Activity (A549 [20]): Active
- IC50 (A549 [21]): 9 nM
- Activity [22]: Active
- Activity (A549 [23]): Dose-Dependent Effect
- Activity (A549 [24]): 57.7%
- Ratio IC50 [25]: 2.7
- Activity (A549 [26]): Dose-Dependent Effect
- Activity (A549 [27]): Dose-Dependent Effect
- IC50 (HeLa): 15 nM
- IC50 (CFPAC-1): 37 nM
- selectivity ratio [28]: 5.56
- selectivity ratio [29]: 11.1
- Activity (A549 [30]): 37.3%
- Activity [31]: Toxic
- Ratio IC50 [32]: 1.85
- inhibition at 72 h, 1 µM [33]: 68.9%
- Activity (A549 [34]): 16.4%
